The assay can be described thus: antiviral activity in Human immunodeficiency virus-1 as reverse transcriptase activity in culture supernatant.

What is called IC50 is the concentration that gives 50% inhibition. In turn, `NC(=S)c1cn(C2OC(CO)C(O)C2F)c2ncnc(N)c12` (stereo unspecified) [4-Amino-7-(3-fluoro-4-hydroxy-5-hydroxymethyl-tetrahydro-furan-2-yl)-7H-pyrrolo[2,3-d]pyrimidine-5-carbothioic acid amide] yielded an IC50 of 70 nM.
Turning to `N#Cc1cn([C@H]2O[C@H](CO)[C@@H](O)[C@@H]2F)c2ncnc(N)c12`, the IC50 is > 100000 nM.
As for `N#Cc1c(Br)n([C@H]2O[C@H](CO)[C@@H](O)[C@@H]2F)c2ncnc(N)c12`, the IC50 worked out at 32000 nM.
As for `Cc1cn([C@H]2C[C@H](N=[N+]=[N-])[C@@H](CO)O2)c(=O)[nH]c1=O` [1-((2R,4S,5S)-4-Azido-5-hydroxymethyl-tetrahydro-furan-2-yl)-5-methyl-1H-pyrimidine-2,4-dione], the figure is 11 nM; as for `NC(=O)c1cn(C2OC(CO)C(O)C2F)c2ncnc(N)c12` (stereo unspecified) [4-Amino-7-(3-fluoro-4-hydroxy-5-hydroxymethyl-tetrahydro-furan-2-yl)-7H-pyrrolo[2,3-d]pyrimidine-5-carboxylic acid amide], 20 nM; as for `N#Cc1cn([C@@H]2O[C@H](CO)[C@@H](O)[C@@H]2F)c2ncnc(N)c12`, 12000 nM.

The values above are taken from BindingDB's records for doi:10.1021/jm00020a026 (University of Michigan, 1995).
